In a melting point compilation (Tetko et al.; mined from patent text by program, amines drawn as free bases though some values may be those of a salt):

First: CC(=O)Oc1c(C=C(C#N)C#N)[nH]c2ccccc12
Second: Cc1[nH]c(=O)c(C#N)cc1-c1ccccc1OCC(=O)O
The melting point of the first is lower: 210 to 212 °C for the first, 297 to 299 °C for the second.

Compared with `CCCCCCCCCCC(=O)OC1CC(C)(C)N(CC#N)C(C)(C)C1`, `CCCCCCCCCCCCCCCCCC(O)c1cc(C(=O)OCC)ccc1O` (stereo not given) is higher in melting point: 54 °C for the first, 75 °C for the second.

First: Cc1nc(N2CCN(Cc3ccc(C(F)(F)F)cc3)C2=O)sc1Br
Second: Cc1nc2scc(C)n2c(=O)c1CCN1CCC(C2(c3ccc(F)cc3)OCCO2)CC1
The melting point of the first is lower: 107 to 108 °C for the first, 140 °C for the second.

First: CC(C)(Oc1ccc2c(c1)CC(NCc1ccccc1)CC2)C(=O)O (stereo not given)
Second: O=C(N[C@@H](CCO)C(=O)O)OCc1ccccc1
The melting point of the first is higher: 240 to 242 °C for the first, 125 to 128 °C for the second.

First: COc1cc(C=C2C(=O)CCc3ccccc32)c([N+](=O)[O-])cc1OC
Second: COc1cc2c(cc1OC)-c1cc(OC)c(OC)cc1C1CN3C(=O)CCC3C=C21 (stereo not given)
The melting point of the first is lower: 58 to 60 °C for the first, 252 to 254 °C for the second.

First: O=C(O)c1ccc(CCCC2SCC(=O)N2CCC2(O)CCCC2)cc1 (stereo not given)
Second: O=C(CC(CC1CCCCC1)(C(=O)O)C(=O)O)c1ccco1
The melting point of the first is higher: 149 to 150 °C for the first, 127 to 130 °C for the second.

Compared with `CC1=C(C(=O)OCCO)C(c2ccccc2C(F)(F)F)C(C(=O)OCCO)=C(C)N1`, `CCOC(=O)C1CS(=O)(=O)c2c(C(=O)c3ccccc3)cc(Cl)cc21` (stereo not given) is higher in melting point: 125 to 127 °C for the first, 138 to 139 °C for the second.

First: CNC(=O)ON=C(C)CSC(F)(F)F
Second: CC(=O)SCCC(=O)N1CC[C@H](SC(C)=O)[C@H]1C(=O)O
The melting point of the first is lower: 56 to 58 °C for the first, 145 to 148 °C for the second.

First: O=C1CCC=C1c1ccc(Cl)cc1
Second: CCC(O)(c1ccc(O)cc1)c1ccc(Cl)cc1 (stereo not given)
The melting point of the first is lower: 71 to 72 °C for the first, 148 to 149 °C for the second.

Compared with `CCCCCCNC(=O)Oc1ccc2oc3ccccc3c2c1`, `O=C(O)CCOCCCc1ccnc(-c2nc(=O)c3ccccc3s2)c1` is higher in melting point: 109 to 110 °C for the first, 154 °C for the second.

First: C1CCc2c(c3c(N4CCCC4)nc(N4CCCC4)nc3n2CCN2CCOCC2)C1
Second: CCCC1CCC(C2CCc3c4c(c(F)c(F)c3O2)OCCC4)CC1 (stereo not given)
The melting point of the first is lower: 132 to 133 °C for the first, 152 °C for the second.

First: CC1(Cn2c(=O)oc3ccc(-c4ccccc4)cc32)Cn2cc([N+](=O)[O-])nc2O1 (stereo not given)
Second: COc1cc(-c2ccccc2)cc(-c2ccccc2)c1
The melting point of the first is higher: 254 to 255 °C for the first, 93 to 94 °C for the second.

First: CC(=O)CNC(=O)c1ccccc1C
Second: O=C(c1ccccc1)n1c(=O)[nH]cc(F)c1=O
The melting point of the first is lower: 65 to 66 °C for the first, 170 °C for the second.

First: CC(C)(C)c1ccc(S(=O)(=O)Oc2ccc(C(c3ccc(OS(=O)(=O)c4ccc(C(C)(C)C)cc4)cc3)(C(F)(F)F)C(F)(F)F)cc2)cc1
Second: CC(C)Cn1cnc2c(N)nc3ccc(-c4ccc(C(C)(C)C)cc4)cc3c21
The melting point of the first is lower: 177 to 180 °C for the first, greater than 250 °C for the second.

First: CCCc1cc(CCCOc2c(C)cc(-c3noc(C)n3)cc2C)on1
Second: COc1cc(OC)c2c(=O)[nH]c(-c3cc(C)c(OCCN4CCN(C)CC4)c(C)c3)nc2c1
The melting point of the first is lower: 69 to 70 °C for the first, 180 to 182 °C for the second.

Compared with `CN1CCCCc2cc(-c3cnc(N)nc3N)ccc21`, `Cc1cc(N)nc(CCc2nc3cc(-c4ccc(S(=O)(=O)N5CCCCC5)cc4)cnc3[nH]2)c1` is higher in melting point: 206 to 207 °C for the first, 233 °C for the second.

First: CN1c2ccccc2C(=C2CCN(C(=O)OCC(Cl)(Cl)Cl)CC2)c2ccccc21
Second: CCOC(=O)N1CCN(C(c2ccccc2)c2ccccc2)CC1(C)Cc1ccc(OC)c(OC)c1 (stereo not given)
The melting point of the first is higher: 190 to 192 °C for the first, 101 °C for the second.

First: O=C1c2ccccc2NC(c2ccc(=O)[nH]c2)N1c1ccc(F)c(C(F)(F)F)c1 (stereo not given)
Second: CN(C(=O)Nc1ccc(F)cc1F)c1cnc2ccc(Cl)cc2c1-c1ccccc1
The melting point of the first is higher: 260 to 261 °C for the first, 200 to 201 °C for the second.

First: O=C(Nc1c(Cl)cnn1-c1c(F)c(F)c(C(F)(F)F)c(F)c1F)C(Cl)Cl
Second: Cc1cc(C(N)=O)ncc1C(c1c(F)ccc(F)c1F)S(=O)(=O)CC1CC1 (stereo not given)
The melting point of the first is lower: 115 to 116 °C for the first, 222 to 223 °C for the second.

First: COC1C(OC(=O)c2ccc([N+](=O)[O-])cc2)C=C(C)C(=O)CC1(C)C (stereo not given)
Second: CCOC(=O)N1CCN(c2ccc(C3=NNC(=O)CC3C)cc2[N+](=O)[O-])CC1 (stereo not given)
The melting point of the first is lower: 136 to 138 °C for the first, 140 to 142 °C for the second.

Compared with `O=S(=O)(CC(O)(CO)c1ccccc1)c1ccccc1` (stereo not given), `CCCCN(CCCC)C(=O)C1=NN(c2ccccc2)C(C(N)=O)=NN1c1ccccc1` is higher in melting point: 137 °C for the first, 160 to 161 °C for the second.

First: CCCCCCOC(=O)OC(C)OC1=C(C(=O)Nc2ccccn2)N(C)S(=O)(=O)c2ccccc21 (stereo not given)
Second: CCCn1cnc2c1c(=O)n(CCCCOc1ccc(OC)cc1)c(=O)n2C
The melting point of the first is higher: 86 to 87 °C for the first, 61 to 62 °C for the second.

Compared with `CC(=O)N1CCN(c2ccc(-c3cnc4[nH]cc(C(=O)N[C@@H](C(=O)N5CC(C#N)C5)C5CC5)c4n3)cc2)CC1`, `Cc1c(C(=O)Nc2ccc(N3CCN(CCO)CC3)c(C#N)c2)cnn1-c1cccc(Cl)c1` is lower in melting point: 185 to 188 °C for the first, 176 to 177 °C for the second.

Compared with `CNC(CNC(=O)c1nc(Cl)c(N)nc1N)CC(=O)NCCN` (stereo not given), `CCCn1c(COCC)nc2c(N)nc3ccc(OCC4CCCO4)cc3c21` (stereo not given) is higher in melting point: 106 to 109 °C for the first, 178 to 179 °C for the second.

Compared with `CN(CCc1c[nH]c2ccc(CN)cc12)Cc1ccccc1`, `Nc1cccnc1Nc1cc(Cl)ccc1C(=O)c1ccccc1` is higher in melting point: 84 to 85 °C for the first, 153 to 155 °C for the second.

First: COc1cc(OC)c2c(=O)[nH]c(-c3ccc(Cc4nnn[nH]4)cc3)nc2c1
Second: CNc1nc(-c2cccc(-c3cccnc3)c2)c2cc(OC)c(OC)cc2n1
The melting point of the first is higher: 295 to 296 °C for the first, 186 to 188 °C for the second.

First: COc1cc2c(cc1[N+](=O)[O-])CCN(CCCCl)C(=O)C2
Second: COc1ccc2c(O)cc(=O)oc2c1C
The melting point of the first is lower: 127 to 128 °C for the first, 195 to 197 °C for the second.

Compared with `COc1ccc(CN2C(=O)C(C)(c3cc(NS(C)(=O)=O)ccc3Cl)c3cc(Cl)ccc32)c(OC)c1` (stereo not given), `Clc1ccc([C@@]2(Cn3ccnc3)OC[C@H](COc3ccc4c(c3)CCNC4)O2)c(Cl)c1` (racemic) is lower in melting point: 210 °C for the first, 143 to 145 °C for the second.

First: CC1(C)C=C(N2CCCS2(=O)=O)c2cc(S(C)(=O)=O)ccc2O1
Second: Cc1cc2c(cc1O)C(C)(C)CC1(CC(C)(C)c3cc(OCCO)c(C)cc3O1)O2 (stereo not given)
The melting point of the first is higher: 226 to 227 °C for the first, 186 to 188 °C for the second.

First: COCCCSc1c2c(=O)n(C)c(=O)n(CC(C)C)c2cn1Cc1cccc2ccccc12
Second: C#CCc1c(C)nc2c(NCc3c(C)cccc3NC(=O)CO)cccn12
The melting point of the first is lower: 92 to 94 °C for the first, 195 to 196 °C for the second.

Compared with `COc1cc(Nc2cc(C(=O)O)c(C(=O)O)cc2Nc2ccccc2)cc(OC)c1OC`, `Cc1ccc(C(=O)c2[nH]c3cc(Cl)ccc3c2CC(=O)O)nc1` is higher in melting point: 145 to 146 °C for the first, 235 to 238 °C for the second.

Compared with `Cc1ccc2c(-c3cc(C(C)(C)C)c(O)c(C(C)(C)C)c3)nn(CCO)c2n1`, `N#CC1=C(C2CCN(C(=N)N)CC2)Nc2n[nH]cc2C1c1cccc2nonc12` (stereo not given) is higher in melting point: 183 to 185 °C for the first, greater than 270 °C for the second.

Going from `O=c1[nH]cnc2cc[nH]c12` to `O=C1CCC2C=C(c3cccnc3)C=C(F)C2N1` (stereo not given), the melting point falls from greater than 300 °C to 203 °C.

Compared with `CSc1nnc(-c2snnc2C)o1`, `CCN=C(NC#N)NCCSCc1ncccc1Br` is higher in melting point: 65 °C for the first, 123 to 124 °C for the second.

First: CCC1c2nc[nH]c2CCN1C(=S)NC(C)C (stereo not given)
Second: CCOCC(=O)OCC(=O)C1(O)CCC2C3CC(C)C4=CC(=O)C=CC4(C)C3C(O)CC21C (stereo not given)
The melting point of the first is lower: 215 °C for the first, 229 °C for the second.
